According to patent US20170209443A1, “ANTI-INFLAMMATORY EFFECT OF ORALLY ACTIVE FYN KINASE INHIBITOR SARA-CATINIB (AZD 0530) AGAINST PARKINSON'S DISEASE AND OTHER RELATED NEURODEGENARATIVE DISEASES” (Iowa State University Research Foundation, Inc., priority 2016, published 2017):
“Also recorded” adds a separate entry of the source. Residues, ends and D or L forms follow the SMILES beside them. *: point of attachment. Cbz = O=C(OCc1ccccc1)*; CH2F = FC*

Columns and labels:
[1] = system: microglial cell line; assay: Griess assay, aggregated α-synuclein induced nitrite production; assay type: cell-based; settings: FIG. 26B
Method: Nitric oxide production by primary microglia was measured indirectly by quantification of nitrite in the supernatant using the Griess reagent (Sigma Aldrich). Microglia were plated in poly-D-lysine-coated 96-well plates at 1×10^5 cells/well. Cells were treated with 100 ng/mL of LPS for 24 h and after 100 μL of supernatant was collected from each well, an equal volume of the Griess reagent was added. The samples were incubated on a plate shaker at room temperature for 15 min until a stable color was obtained. The absorbance at 540 nm was measured using a Synergy 2 multi-mode microplate reader (BioTek Instruments) and the nitrite concentration was determined from a sodium nitrite standard curve.
(§1) In this study microglial cell line were pretreated with 1-30 μM Saracatinib, a Fyn kinase inhibitor followed by aggregated α-synuclein (1 μM) for 24 hours in a 96 well plate.

[2] = system: immortalized WT microglial cells; assay: aggregated αSyn-induced IL-1β secretion from unprimed immortalized microglial cells; assay type: cell-based; settings: pre-treatment before aggregated αSyn, FIG. 19B
Source text: The current model of the NLRP3 inflammasome postulates a two-step mechanism. A TLR or TNFR1 agonist, acting as the initial signal, induces the expression of pro-[…] and NLRP3 proteins. Subsequently, a second signal causes lysosomal rupture, mitochondrial ROS generation and/or K^+ efflux that acts as a danger signal resulting in the assembly and activation of the inflammasome complex and the processing and secretion of IL-1β into the cell supernatant. Since we observed that αSyn can signal the inflammasome and can also amplify LPS-mediated activation of NLRP3 and pro-IL-1β at the mRNA and protein level, we wondered if it could activate the NLRP3 inflammasome independent of an LPS-mediated priming step. Unprimed and immortalized WT and Capsase-1^−/− microglial cells were treated with aggregated αSyn for 4 h. As assessed via immunoblot, aggregated αSyn induced pro-IL-1β and NLRP3 to equivalent levels in both cell types (FIG. 19A). It also brought about the secretion of IL-1β in WT, and to a strikingly lower extent in the Caspase-1 deficient microglial cells. […] We next utilized primary BMDMs from WT, NLRP3^−/−, Caspase-1^−/− and Caspase-11^−/− mice to test the ability of αSyn to activate the NLRP3 inflammasome in them. As expected, we saw no genotypic difference in the ability of macrophages to induce pro-IL-1β and import αSyn (FIG. 19C). […]

[3] = system: microglial cell line; assay: cell viability assay in microglial cell line; assay type: cell-based; settings: FIG. 26A
Method: as §1

[4] = system: microglial cell line; assay: Luminex cytokine assay, aggregated α-synuclein induced pro-inflammatory cytokines; assay type: cell-based; settings: 1-30 μM pretreatment, aggregated α-synuclein (1 μM) 24 hours; FIG. 26C
Method: Primary microglia obtained from wild-type, PKCδ^−/− and Fyn^−/− mice were seeded in poly-D-lysine-coated 96-well plates at 1×10^5 cells/well. The cells were treated for 24 h with 100-200 ng/mL LPS or 10 ng/mL TNFα. After treatment, 50 μL of supernatant from each well was collected and frozen at −80° C. The levels of cytokines and chemokines in the supernatants were determined using the Luminex bead-based immunoassay platform (Vignali 2000) and pre-validated multiplex kits (Milliplex mouse cytokine panel Millipore) according to the manufacturer's instructions.
as §1

[5] = system: MPTP-treated mice; assay: microglia activation (IBA-1) in substantia nigra, acute MPTP mouse model; assay type: in vivo, C57 black mice; settings: FIG. 27; for expression of IBA-1 in SN tissue (Western blot): oral 5 mg/kg once on days 1 and 2, MPTP 18 mg/kg x 4 i.p., 24 hrs after last MPTP
Method: Thus, we evaluated whether the Sarcanatib attenuates microglial activation in the substantia nigra. C57 black mice were orally administered saracatinib (5 mg/kg, once) on days 1 and 2. On day 2, after sarcanatib administration, mice were subject to acute MPTP regimen. Mice were administered 18 mg/kg MPTP (4 i.p. injections at 2 hour intervals) and control animals received saline. Mice were sacrificed 24 hrs post last MPTP injection. Brain harvested and nigral tissue lysates were subject to Western blot analysis.

[6] = system: LPS-primed primary murine microglia; assay: αSyn-induced IL-1β and TNFα production in LPS-primed primary microglia; assay type: cell-based; settings: pre-treatment post priming, before αSyn; FIG. 14A
Method: Misfolded proteins can activate the NLRP3 inflammasomes in microglia (Hafner-Bratkovic et al., 2012; Halle et al., 2008). After obtaining and purifying human αSyn (FIG. 15), we determined that endotoxin contamination was minimal, and that an equivalent concentration of LPS could not activate pro-inflammatory signaling in microglia (data not shown). Aggregation of αSyn was performed as previously described (Zhang et al., 2005). LPS-primed primary murine microglia were treated with α-synuclein for 24 h, with or without the pre-treatment of the pan-Caspase inhibitor ZVAD-FMK or the Caspase-1 specific inhibitor ZYVAD-FMK. […] Next, we treated LPS-primed bone marrow-derived macrophages (BMDMs) from WT, NLRP3^−/−, ASC^−/−, Caspase-1^−/− and Caspase-11^−/− mice with aggregated human α-synuclein for 24 h (FIG. 14B). […] By immunoblotting the levels of pro-IL-1β produced upon LPS treatment (FIG. 14C, 14D), we confirmed that none of these proteins played a role in the priming of the NLRP3 inflammasome. Next, we assessed the inflammasome activating ability of aggregated human αSyn in primary murine microglia by staining for ASC in LPS and LPS+αSyn treated microglia. […] We also utilized the ASC-CFP reporter cell line, which overexpresses ASC tagged with cyan fluorescent protein (CFP). NLRP3 inflammasome activation causes ASC to coalesce into a single speck within each cell. We counted the number of ASC-positive specks to measure inflammasome activation. ASC-CFP cells were primed with LPS and treated with aggregated αSyn for 2 h. Endogenous CFP fluorescence was assessed. In the αSyn treated group, specks of ASC were observed, indicating inflammasome activation (FIG. 14G). […] In summary, aggregated αSyn acts as an efficient danger signal to activate the NLRP3 inflammasome. Data from the A53T model and from PD patient lysates provide in vivo relevance as well. We also observed increased Fyn expression within the microglia in PD tissues, when compared to age-matched control tissues (FIG. 16).

Row | SMILES | nitrite production induced by aggregated α-synuclein ([1]; 10 μM dose) | aggregated α-synuclein induced nitrite production ([1]; 1-30 μM pretreatment, aggregated α-synuclein (1 μM) 24 hours) | αSyn-induced secretion of IL-1β [2] | cytotoxic cell death ([3]; 1-30 μM pretreatment, then aggregated α-synuclein (1 μM) for 24 hours) | cell death ([3]; low dose) | IL-1β production induced by aggregated α-synuclein [4] | IL-12 production induced by aggregated α-synuclein [4] | TNF-α production induced by aggregated α-synuclein [4] | activation of microglia in the substantia nigra ([5]; MPTP-treated mice) | expression of IBA-1 in SN tissue (Western blot) [5] | expression of IBA-1 in SN tissue (Western blot) ([5]; listed as saracatinib) | secretion/production of TNFα [6] | αSyn-induced IL-1β cleavage and secretion [6]
1 | CN1CCN(CCOc2cc(OC3CCOCC3)c3c(Nc4c(Cl)ccc5c4OCO5)ncnc3c2)CC1 [Saracatinib] | attenuates the nitrite production | significantly blocked aggregated α-synuclein induced nitrite production in a dose-dependent manner | inhibited by pre-treatment with the Fyn inhibitor Saracatinib in a dose-dependent manner; also recorded: inhibited with pretreatment of the Fyn inhibitor Saracatinib in a dose dependent manner | did not induce cytotoxic cell death | not associated with cell death | significantly attenuated; also recorded: attenuates the secretion | significantly attenuated; also recorded: attenuates the secretion | significantly attenuated; also recorded: attenuates the secretion | blocked activation of microglia | not in Saracatinib and MPTP-treated animals | attenuated the expression of IBA-1 | – | –
2 | COC(=O)C[C@H](NC(=O)[C@H](C)NC(=O)[C@@H](NC(=O)OCc1ccccc1)C(C)C)C(=O)CF [ZVAD-FMK] (Cbz-Val-Ala-Asp(OMe)-CH2F) | – | – | – | – | – | – | – | – | – | – | – | only marginally reduced | reduced in the group pre-treated with the Caspase inhibitors
3 | COC(=O)C[C@H](NC(=O)[C@H](C)NC(=O)[C@@H](NC(=O)[C@H](Cc1ccc(O)cc1)NC(=O)OCc1ccccc1)C(C)C)C(=O)CF [ZYVAD-FMK] | – | – | – | – | – | – | – | – | – | – | – | only marginally reduced | reduced in the group pre-treated with the Caspase inhibitors
